# According to PubChem BioAssay AID397 (SGCOxCompounds, 2006):
# Molecular target: GTP-binding protein GEM (Homo sapiens) (UniProt P55040)
# Test: ligand-induced stabilization of human GEM GTPase – biophysical, DSF, SYPRO orange, purified protein (AID 397)
# Settings: DSF SYPRO orange thermal shift, at 10 µM, protein 2 µM, buffer 10 mM HEPES, pH 7.5, NaCl 150 mM, DTT 1 mM, GDP 40 µM, MgCl 1 mM, hits give high values
# Sequence of GTP-binding protein GEM (Homo sapiens) (P55040 whole entry, looked up): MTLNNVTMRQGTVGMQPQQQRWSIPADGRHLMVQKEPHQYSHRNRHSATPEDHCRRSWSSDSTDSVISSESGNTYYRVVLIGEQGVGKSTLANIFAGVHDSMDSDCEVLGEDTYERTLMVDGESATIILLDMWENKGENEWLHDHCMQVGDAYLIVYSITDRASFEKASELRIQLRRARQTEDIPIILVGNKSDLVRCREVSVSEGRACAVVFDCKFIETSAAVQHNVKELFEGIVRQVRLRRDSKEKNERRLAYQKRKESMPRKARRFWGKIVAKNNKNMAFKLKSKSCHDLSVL
row,SMILES,Tm shift
1,O=C1NC(=O)c2c1c1c3ccccc3[nH]c1c1[nH]c3cc(Br)ccc3c21,3.1 Celsius

# Same assay, conditions: DSF SYPRO orange thermal shift, at 10 µM, protein 2 µM, buffer 10 mM HEPES, pH 7.5, NaCl 150 mM, DTT 1 mM, hits give high values
row,SMILES,Tm shift
1,Oc1ccc(-c2nc(-c3ccc(F)cc3)c(-c3ccncc3)[nH]2)cc1,6 Celsius
2,NC1=N/C(=C2/CCNC(=O)c3[nH]c(Br)cc32)C(=O)N1,3.1 Celsius
3,O=c1cc(-c2ccc(O)cc2)oc2cc(O)cc(O)c12,4.1 Celsius
4,CN(C)CCCn1cc(C2=C(c3c[nH]c4ccccc34)C(=O)NC2=O)c2ccccc21,3.2 Celsius
5,CN(C)S(O)(O)c1ccc2c(c1)/C(=C/c1cc3c([nH]1)CCCC3)C(=O)N2,3.1 Celsius
6,NC(=O)c1ccc(-c2nc(-c3ccc4c(c3)OCCO4)c(-c3ccccn3)[nH]2)cc1,4.5 Celsius
7,O=c1c(-c2ccc(O)cc2)coc2cc(O)cc(O)c12,5 Celsius
8,Nc1cc2ncnc(Nc3cccc(Br)c3)c2cc1N,3.5 Celsius
9,COc1cc2ncnc(Nc3cccc(Br)c3)c2cc1OC,5.4 Celsius
10,COC(=O)/C=C/c1cc(O)ccc1O,3.2 Celsius

# Same assay, conditions: DSF SYPRO orange thermal shift, at 10 µM, protein 2 µM, buffer 10 mM HEPES, pH 7.5, NaCl 150 mM, DTT 1000 µM, with dithiothreitol, hits give high values
row,SMILES,Tm shift
1,CC(C)(C)c1nc2c3cc[nH]c(=O)c3c3cc(F)ccc3c2[nH]1,3 Celsius
2,C=C(Nc1cc(NC(=O)c2cccc(N(C)C)c2)ccc1C)c1ccc(O)cc1,2.8 Celsius
3,CC(O)(O)C1(O)C[C@@H]2O[C@@]1(C)n1c3ccccc3c3c4c(c5c6ccccc6n2c5c31)C(=O)NC4 (stereo partly specified),3 Celsius
4,C/C(O)=C(\C#N)C(=O)Nc1cc(Br)ccc1Br,2.2 Celsius
5,CCCCc1c(-c2ccc(O)cc2)[nH]c2nccnc12,2.7 Celsius
6,CC[C@H](CO)Nc1nc(NCc2ccccc2)c2ncn(C(C)C)c2n1,2.1 Celsius
7,Nc1[nH]nc2nc3ccccc3nc12,2.5 Celsius
8,Oc1cc(O)cc(/C=C/c2ccc(O)c(O)c2)c1,2.3 Celsius
9,N#C/C(=C(/N)Sc1ccc(N)cc1)c1ccccc1C(F)(F)F,2.8 Celsius
10,Ic1cccc(CSc2nnc(-c3ccncc3)o2)c1,2.4 Celsius
11,O=S(=O)(c1cccc2c(Cl)cccc12)N1CCCNCC1,2.8 Celsius
12,N#CC(Cc1ccc(O)c(O)c1)C(=O)Nc1ccccc1 (stereo unspecified),2.7 Celsius
13,O=C1Nc2ccccc2/C1=C\c1cnc[nH]1,2.5 Celsius
14,CC(C)n1cnc2c(Nc3cccc(Cl)c3)nc(NCCO)nc21,2.3 Celsius

# Same assay, conditions: DSF SYPRO orange thermal shift, at 10 µM, protein 2 µM, buffer 10 mM HEPES, pH 7.5, NaCl 150 mM, GDP 40 µM, hits give high values
row,SMILES,Tm shift
1,Brc1c(Br)c(Br)c2n[nH]nc2c1Br,2.5 Celsius
2,COc1cc(/C=C/C(=O)CC(=O)/C=C/c2ccc(O)c(OC)c2)ccc1O,2.4 Celsius
3,COc1cc(O)c2c(c1)oc(=O)c1c3cc(O)c(O)cc3oc21,2.3 Celsius

# Same assay, conditions: DSF SYPRO orange thermal shift, at 10 µM, protein 2 µM, buffer 10 mM HEPES, pH 7.5, NaCl 150 mM, hits give high values
row,SMILES,Tm shift
1,CCOc1c(Br)ccc2c1sc1nc[nH]c(=O)c12,3.1 Celsius
2,Cc1ccc(NC(=O)c2snc3c(=O)[nH]cnc23)cc1,2.1 Celsius
3,Cc1ccc2c(c1Br)C(=Nc1ccc(Cl)cc1)C(=O)N2,2.3 Celsius
